Measurements from ChEMBL document CHEMBL4480396 (Eur J Med Chem, 2019).

What was measured:
Assay type in all cases: functional, cell-based
PC-3 = assay: Antiproliferative activity against human PC3 cells measured after 48 hrs by MTT assay; conditions: PC-3, 48 h
MGC-803 [1] = assay: Antiproliferative activity against human MGC803 cells measured after 48 hrs by MTT assay; conditions: MGC-803, 48 h
HepG2 = assay: Antiproliferative activity against human HepG2 cells measured after 48 hrs by MTT assay; conditions: HepG2, 48 h
MGC-803 [2] = assay: Antiproliferative activity against human MGC803 cells measured after 48 hrs by CCK8 assay; conditions: MGC-803, 48 h

| SMILES | IC50 (PC-3) [µM] | IC50 (MGC-803 [1]) [µM] | IC50 (HepG2) [µM] | IC50 (MGC-803 [2]) [µM] |
| --- | --- | --- | --- | --- |
| COc1ccc(CN(C(=O)Cn2cc(CN3c4ccccc4Sc4ccc(C(F)(F)F)cc43)nn2)c2cc(OC)c(OC)c(OC)c2)cc1 | > 80 | > 80 | > 80 |  |
| COc1ccc(CN(C(=O)Cn2cc(COc3cc(=O)oc4ccccc34)nn2)c2cc(OC)c(OC)c(OC)c2)cc1 | 5.14 | 3.66 | 6.25 |  |
| COc1ccc(CN(C(=O)Cn2cc(CN3c4ccccc4Sc4ccccc43)nn2)c2cc(OC)c(OC)c(OC)c2)cc1 | > 80 | > 80 | > 80 |  |
| COc1cc(N2C(=O)[C@H](c3cccs3)[C@H]2c2cccc(N=[N+]=[N-])c2)cc(OC)c1OC |  |  |  | 0.106 |

Further lines, results first:

| IC50 (PC-3) [µM] | IC50 (MGC-803 [1]) [µM] | IC50 (HepG2) [µM] | IC50 (MGC-803 [2]) [µM] | SMILES |
| --- | --- | --- | --- | --- |
| 28.4 | 0.48 | 49.2 |  | COc1ccc(CN(C(=O)Cn2cc(CSc3nc4ccccc4s3)nn2)c2cc(OC)c(OC)c(OC)c2)cc1 |
| 16.5 | 5 | 38.6 |  | COc1ccc(CN(C(=O)Cn2cc(CSc3nncs3)nn2)c2cc(OC)c(OC)c(OC)c2)cc1 |
| 16 | 1.61 | 25 |  | COc1ccc(CN(C(=O)Cn2cc(CSC3=NCCS3)nn2)c2cc(OC)c(OC)c(OC)c2)cc1 |
| 12.5 | 0.43 | 7.37 |  | COc1ccc(CN(C(=O)Cn2cc(CNS(=O)(=O)c3ccc(Br)cc3)nn2)c2cc(OC)c(OC)c(OC)c2)cc1 |
| 0.86 | 0.18 | 1.3 |  | COc1ccc(CN(C(=O)Cn2cc(COc3ccc4ccc(=O)oc4c3)nn2)c2cc(OC)c(OC)c(OC)c2)cc1 |
